How the values were obtained:
[1] = tested on: SARS-CoV-2; assay: Anti-SARS-CoV-2 activity in A549 cells expressing the human ACE2 receptor (inhibition of SARS-CoV-2 replication); format: cell-based; conditions: for EC50: Severe acute respiratory syndrome coronavirus 2, A549-ACE2, 24 h, read-out: Antiviral Activity (EC50)
[2] = molecular target: SARS-CoV-2 3CLpro (Severe acute respiratory syndrome coronavirus 2, UniProt P0DTD1); assay: biochemical; conditions: inhibition of SARS-CoV-2 3CLpro; 15 nM 3CLpro, 25 μM fluorogenic substrate, 37° C.; read-out: Inhibitory Activity (IC50)

| SMILES | antiviral potency in A549 cells in comparison with compound Ref-2 ([1]; A549 cells, versus Ref-2 (FIG. 7)) | IC50 [2] | EC50 [1] |
| --- | --- | --- | --- |
| O=C(c1cc(Cl)cc([N+](=O)[O-])c1N[C@H]1CN(C(=O)c2cncc3ccccc23)CCC1(F)F)N1CC(O)C1 [Compound 43, (S)-(5-chloro-2-((4,4-difluoro-1-(isoquinoline-4-carbonyl)piperidin-3-yl)amino)-3-nitrophenyl)(3-hydroxyazetidin-1-yl)methanone] | better antiviral potency | < 100 nM |  |
| O=C(NCC(F)F)c1cc(Br)cc([N+](=O)[O-])c1N[C@@H]1CCCC[C@@H]1NC(=O)c1cncc2ccccc12 [Compound 61, N-((IS, 2R)-2-((4-bromo-2-((2,2-difluoroethyl)carbamoyl)-6-nitrophenyl)amino)cyclohexyl)isoquinoline-4-carboxamide] |  | < 100 nM | < 100 nM |
| O=C(NC1CC(F)(F)C1)c1cc(Br)cc([N+](=O)[O-])c1N[C@H]1CN(C(=O)c2cncc3ccccc23)CCC1(F)F [Compound 33, (S)-5-bromo-2-((4,4-difluoro-1-(isoquinoline-4-carbonyl)piperidin-3-yl)amino)-N-(3,3-difluorocyclobutyl)-3-nitrobenzamide] |  | < 100 nM | < 100 nM |
| O=C(NCC(F)(F)F)c1cc(Br)cc([N+](=O)[O-])c1N[C@@H]1CCCC[C@@H]1NC(=O)c1cncc2ccccc12 [Compound 59, N-((1S, 2R)-2-((4-bromo-2-nitro-6-((2,2,2-trifluoroethyl)carbamoyl)phenyl)amino)cyclohexyl)isoquinoline-4-carboxamide] |  | 100 to 1000 nM | 100 to 1000 nM |
| O=C(NC1CC(F)(F)C1)c1cc(Br)cc([N+](=O)[O-])c1N[C@@H]1CCCN(C(=O)c2cncc3ccccc23)C1 [Compound 34, (R)-5-bromo-N-(3,3-difluorocyclobutyl)-2-((1-(isoquinoline-4-carbonyl)piperidin-3-yl)amino)-3-nitrobenzamide] |  | < 100 nM | < 100 nM |
| CNC(=O)c1cc(Br)cc([N+](=O)[O-])c1N[C@@H]1CCOC[C@@H]1NC(=O)c1cncc2ccccc12 [Compound 70, N-((3R, 4R)-4-((4-bromo-2-(methylcarbamoyl)-6-nitrophenyl)amino)tetrahydro-2H-pyran-3-yl)isoquinoline-4-carboxamide] |  | 100 to 1000 nM | 100 to 1000 nM |
| CNC(=O)c1cc(Cl)cc([N+](=O)[O-])c1N[C@H]1CN(C(=O)c2cncc3ccccc23)CCC1(F)F [Compound 92, (S)-5-chloro-2-((4,4-difluoro-1-(isoquinoline-4-carbonyl)piperidin-3-yl)amino)-N-methyl-3-nitrobenzamide] |  | < 100 nM | < 100 nM |
| CC(C)C(Nc1c(C(=O)NC2CC(F)(F)C2)cc(Br)cc1[N+](=O)[O-])C1CN(C(=O)c2cncc3ccccc23)C1 (stereo not shown) [Compound 116, 5-bromo-N-(3,3-difluorocyclobutyl)-2-((1-(1-(isoquinoline-4-carbonyl)azetidin-3-yl)-2-methylpropyl)amino)-3-nitrobenzamide] |  | 100 to 1000 nM | 100 to 1000 nM |
| CNC(=O)c1cc(Br)cc([N+](=O)[O-])c1N[C@@H]1CCCC[C@@H]1NC(=O)c1cccnc1 [Compound 1, N-((1S, 2R)-2-((4-bromo-2-(methylcarbamoyl)-6-nitrophenyl)amino)cyclohexyl)nicotinamide] |  | 100 to 1000 nM | 1000 to 10000 nM |
| O=C(NC1CC1)c1cc(Br)cc([N+](=O)[O-])c1N[C@@H]1COCC[C@@H]1NC(=O)c1cncc2ccccc12 [Compound 133, N-((3S, 4S)-3-((4-bromo-2-(cyclopropylcarbamoyl)-6-nitrophenyl)amino)tetrahydro-2H-pyran-4-yl)isoquinoline-4-carboxamide] |  | < 100 nM | < 100 nM |
| CNC(=O)c1cc(Br)cc([N+](=O)[O-])c1NC1CC2(C1)CN(C(=O)c1cncc3ccccc13)C2 [Compound 13, 5-bromo-2-((2-(isoquinoline-4-carbonyl)-2-azaspiro[3.3]heptan-6-yl)amino)-N-methyl-3-nitrobenzamide] |  | ≥ 10000 nM | > 10000 nM |
